Experimental data from US20230372529A1, “MITOCHONDRIA COMPRISING ANTICANCER DRUG AND USE THEREOF” (Paean Biotechnology Inc., priority 2020, published 2023).

How the values were obtained:
[1] = test system: SK-BR-3, BT-474, MDA-MB-231, NCI-H1975, NCI-N87 and MKN-74; test: cancer cell proliferation inhibition for each concentration, WST-1 assay (DOX series); type: cell-based, human; conditions: 0.01 to 2 μM, 144 hours, versus untreated group (NC)
Experimental: Specifically, the human breast cancer (SK-BR-3, BT-474 and MDA-MB-231), lung cancer (NCI-H1975) and gastric cancer (NCI-N87 and MKN-74) cell lines were inoculated into a 96-well plate at about 3×10^3 cells/well, respectively, and cultured for 24 hours. At this time, SK-BR-3, BT-474 and NCI-N87 cells were cultured in RPMI-1640 medium containing 10% FBS, and MDA-MB-231, NCI-H1975 and MKN-74 cells were cultured in DMEM medium containing 10% FBS. After culturing for 24 hours, each cell was treated with doxorubicin (DOX) or DOX_MT^α-HER2scFv at a concentration of 2 μM, 1 μM, 0.5 μM, 0.25 μM, 0.1 μM, 0.05 μM, 0.025 μM, and 0.01 μM. After 144 hours of sample treatment, cell proliferation was measured by WST-1 assay.

[2] = test system: human lung fibroblast cell lines WI-38 and CCD-8Lu; test: proliferation inhibition in normal cells for each concentration, WST-1 assay (DOX series); type: cell-based; conditions: 0.01 to 2 μM, 144 hours
Experimental: 200 μg of MT^α-HER2scFv and 100 μM doxorubicin (DOX) were reacted in the same manner as in Preparation Example 2 above. In order to confirm the influence of the obtained DOX_MT^α-HER2scFv on cell proliferation in normal cells, the cell proliferation inhibitory effect by treatment with DOX_MT^α-HER2scFv in human lung fibroblasts was evaluated.
Specifically, the human lung fibroblast cell lines WI-38 and CCD-8Lu were inoculated into a 96-well plate at about 3×10^3 cells/well, respectively, and cultured for 24 hours. At this time, WI-38 and CCD-8Lu were cultured in DMEM medium containing 10% FBS. After culturing for 24 hours, each cell was treated with doxorubicin (DOX) or DOX_MT^α-HER2scFv at a concentration of 2 μM, 1 μM, 0.5 μM, 0.25 μM, 0.1 μM, 0.05 μM, 0.025 μM, and 0.01 μM. After 144 hours of sample treatment, cell proliferation was measured by WST-1 assay.

[3] = test system: SK-BR-3, BT-474, MDA-MB-231, NCI-H1975, MKN-74 and NCI-N87; test: proliferation inhibition at the same concentration, WST-1 assay, cancer cells (DOX series); type: cell-based; conditions: Homo sapiens, 144 hours, read-out: cell proliferation inhibitory effect compared to the untreated group, cancer cells
Experimental: (§1) 200 μg of MT^α-HER2scFv and 100 μM doxorubicin (DOX) were reacted in the same manner as in Preparation Example 2 above. In order to compare the influence of the obtained DOX_MT^α-HER2scFv on cell proliferation in cancer cells and normal cells, after treatment with DOX_MT^α-HER2scFv at the same concentration in the human breast cancer, lung cancer, gastric cancer cell lines and the lung fibroblast cell line, the cell proliferation inhibitory ability was measured.
(§2) Specifically, the human breast cancer (SK-BR-3, BT-474 and MDA-MB-231), lung cancer (NCI-H1975), gastric cancer (MKN-74 and NCI-N87) cell lines and the lung fibroblast cell line (CCD-8Lu and WI-38) were inoculated into a 96-well plate at about 3×10^3 cells/well, respectively, and cultured for 24 hours. At this time, SK-BR-3, BT-474 and NCI-N87 cells were cultured in RPMI-1640 medium containing 10% FBS. MDA-MB-231, NCI-H1975, MKN-74, CCD-8Lu, and WI-38 cells were cultured in DMEM medium containing 10% FBS. After culturing for 24 hours, the cells were treated with 0.5 μM doxorubicin (DOX) or DOX_MT^α-HER2scFv respectively, and after 144 hours, the cell proliferation inhibitory ability was evaluated by WST-1 assay. […] Statistical processing was performed using Graphpad 5.0 software, and p values were measured with one-way ANOVA (Turkey's) test (*p<0.05, **p<0.01, and ***p<0.001).

[4] = test system: lung fibroblast cell line (CCD-8Lu and WI-38); test: proliferation inhibition at the same concentration, WST-1 assay, normal cells (DOX series); type: cell-based; conditions: Homo sapiens, 144 hours, read-out: cell proliferation inhibitory effect compared to the untreated group, normal cells
Experimental: as §1, §2

[5] = test system: mouse melanoma cell line B16F10 overexpressing human HER2, allograft; test: anticancer activity of DOX_MT^α-HER2scFv in allograft tumor animal model; type: in vivo; conditions: MT^α-HER2scFv 20 μg, DOX 4 μg, DOX_MT^α-HER2scFv 4 μg/20 μg, intravenously 3 times a week for 3 weeks
Description: 7-week-old C57BL/6 female mice (Samtako Bio Korea) were acclimatized for 1 week, and then the mouse melanoma cell line B16F10 was subcutaneously transplanted into the lateral abdomen of the mice at about 5×10^5 cells/mouse to construct an allograft tumor mouse. At this time, B16F10 cells in which the human HER2 gene was overexpressed using lentivirus were used as B16F10 cells. When the average volume of the tumor reached 100˜200 mm^3, the mice were divided into 4 groups of 3 mice per test group, and MT^α-HER2scFv (20 μg), DOX (4 μg) or DOX_MT^α-HER2scFv (TPP-DOX/MT: 4 μg/20 μg) was intravenously administered 3 times a week for 3 weeks. The tumor size was measured 3 times a week, and after the end of the experiment (after 3 weeks from the start of administration), the tumor tissues of the mice were extracted, and the size and weight were measured (FIG. 73).

[6] = test system: SK-BR-3, BT-474, MDA-MB-231, NCI-H1975, NCI-N87 and MKN-74; test: cancer cell proliferation inhibition for each concentration, WST-1 assay (TPP-DOX series); type: cell-based, human; conditions: 0.01 to 2 μM, 144 hours, versus untreated group (NC)
Experimental: After culturing for 24 hours, each cell was treated with TPP-DOX or TPP-DOX_MT^α-HER2scFv at a concentration of 2 μM, 1 μM, 0.5 μM, 0.25 μM, 0.1 μM, 0.05 μM, 0.025 μM and 0.01 μM. […] At this time, the mitochondria-only treated group (MT, MT^α-HER2scFv) was used as a negative control for TPP-DOX MT^α-HER2scFv.

[7] = test system: human lung fibroblast cell lines WI-38 and CCD-8Lu; test: proliferation inhibition in normal cells for each concentration, WST-1 assay (TPP-DOX series); type: cell-based; conditions: 0.01 to 2 μM, 144 hours
Experimental: Specifically, the human lung fibroblast cell lines WI-38 and CCD-8Lu were inoculated into a 96-well plate at about 3×10^3 cells/well, respectively, and cultured for 24 hours. At this time, WI-38 and CCD-8Lu were cultured in DMEM medium containing 10% FBS. After culturing for 24 hours, each cell was treated with TPP-DOX or TPP-DOX_MT^α-HER2scFv at a concentration of 2 μM, 1 μM, 0.5 μM, 0.25 μM, 0.1 μM, 0.05 μM, 0.025 μM and 0.01 μM. […] At this time, the mitochondria-only treated group (MT, MT^α-HER2scFv) was used as a negative control for TPP-DOX MT^α-HER2scFv.

[8] = test system: lung fibroblast cell line (CCD-8Lu and WI-38); test: proliferation inhibition at the same concentration, WST-1 assay, normal cells (TPP-DOX series); type: cell-based, human; conditions: 0.5 μM, 144 hours
Experimental: At this time, the mitochondria-only treated group (MT^α-HER2scFv) was used as a negative control for TPP-DOX_MT^α-HER2scFv. Statistical processing was performed using Graphpad 5.0 software, and p values were measured with one-way ANOVA (Turkey's) test (*p<0.05, **p<0.01 and ***p<0.001).

[9] = test system: HER2^+ human gastric cancer cell line NCI-N87 xenograft; test: anticancer activity in NCI-N87 xenograft tumor mouse model; type: in vivo; conditions: 4 μg intravenously
Experimental: 5-week-old BALB/c male nude mice (initial body weight of 18˜20 g) (Nara Biotech) were acclimatized for 1 week, and then HER2^+ human gastric cancer cell line NCI-N87 was subcutaneously transplanted into the lateral abdomen at 1×10^7 cells/mouse to construct a xenograft tumor model mouse. […] The tumor size was measured at an interval of 2˜4 days, and after 25 days from the start of administration, the tumor tissues were extracted, and the size and weight were measured (FIG. 65).

[10] = test system: mouse melanoma cell line B16F10 overexpressing human HER2, allograft; test: anticancer activity of TPP-DOX_MT^α-HER2scFv in allograft tumor mouse model; type: in vivo; conditions: MT^α-HER2scFv 20 μg, TPP-DOX 5 μg, TPP-DOX/MT 5 μg/20 μg, intravenously 3 times a week for 3 weeks
Experimental: 7-week-old C57BL/6 female mice (Samtako Bio Korea) were acclimatized for 1 week, and then the mouse melanoma cell line B16F10 was subcutaneously transplanted into the lateral abdomen of the mice at about 5×10^5 cells/mouse to construct an allograft tumor mouse. […] When the average volume of the tumor reached 100˜200 mm^3, the mice were divided into 4 groups of 3 mice per test group, and MT^α-HER2scFv (20 μg), TPP-DOX (5 μg) or TPP-DOX_MT^α-HER2scFv (TPP-DOX/MT: 5 μg/20 μg) was intravenously administered 3 times a week for 3 weeks. The tumor size was measured 3 times a week, and after the end of the experiment (after 3 weeks from the start of administration), the tumor tissues of the mice were extracted, and the size and weight were measured (FIG. 69).

PDL1 = biological target: T1, PDL1 (human, UniProt Q9NZQ7 19-290); test: confocal microscopy, MitoTracker Red-stained scFv-fused mitochondria on co-cultured BXPC-3 (PDL1+) and CFPAC-1 (PDL1-) cells
T1 construct: whole, on cells; also called PDL1 antigen
Experimental: Mitochondria to be used as samples were prepared by treating untreated HEK293 cells (MT) and HEK293 cells comprising mitochondria fused with an anti-PDL1scFv antibody (MT^{α-PDL1scFv}) with MitoTracker Red to stain the mitochondria, and then isolating the mitochondria. After co-culture for 24 hours, each isolated mitochondrion was treated with the co-cultured cells and reacted for 24 hours (FIG. 47).
The cells treated in the same manner as in Example 4 above were washed once with PBS, and fixed by adding 3.7% formaldehyde at room temperature for 30 minutes, and then immunocytochemistry staining was performed. At this time, an anti-PDL1 antibody (Cell signaling, 86744) was used as a primary antibody, and Alexa Fluor 488 goat anti-rabbit IgG (H+L) was used as a secondary antibody. The nuclei of the cells were observed by staining with DAPI.

T1 sequence (Q9NZQ7 19-290): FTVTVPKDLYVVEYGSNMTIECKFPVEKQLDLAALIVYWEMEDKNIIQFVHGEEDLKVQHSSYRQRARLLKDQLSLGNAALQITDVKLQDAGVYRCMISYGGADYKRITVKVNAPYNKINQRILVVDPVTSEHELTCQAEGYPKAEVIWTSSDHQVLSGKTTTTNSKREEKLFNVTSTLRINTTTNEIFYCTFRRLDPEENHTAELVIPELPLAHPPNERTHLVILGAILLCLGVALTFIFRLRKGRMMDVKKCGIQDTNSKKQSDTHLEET

## COc1cccc2c1C(=O)c1c(O)c3c(c(O)c1C2=O)C[C@@](O)(C(=O)CO)C[C@@H]3O[C@H]1C[C@H](N)[C@H](O)[C@H](C)O1 [DOX, doxorubicin]
[1]
  cell proliferation inhibitory effect: inhibited in a concentration-dependent manner
[2]
  cell proliferation inhibitory ability in normal cells: weaker than that of cancer cells
[3]
  inhibition at 0.5 µM: 50 to 80%
[4]
  inhibition at 0.5 µM: ≤ 25%
[5]
  tumor size compared to the control group (CTR): significantly reduced

## triphenylphosphonium (TPP)-doxorubicin [TPP-DOX]
[6]
  cell proliferation inhibitory effect: inhibited in a concentration-dependent manner
[7]
  cell proliferation inhibitory ability in normal cells: weaker than that of cancer cells
[8]
  proliferation inhibitory ability, normal cells: weak
[9]
  tumor size by date compared to the control group (CTR): similar
[10]
  tumor size compared to the control group (CTR): similar

B1: anti-PDL1scFv antibody fused to the mitochondrial outer membrane (scFvPDL1-myc-TOM7) (scFv)
scFv: MDIVMSQSPSSLAVSAGEKVTMSCKSSQSLLNSRTRKNYLAWYQQKPGQSPKLLIYWASTRESGVPDRFTGSGSGTDFTLTISSVQAEDLAVYYCQQSYDVVTFGAGTKLELKGGGGSGGGGSGGGGSQVQVQQSGAELAEPGASVKMSCKASGYIFTSYWMHWLKQRPGQGLEWIGYINPSSDYNEYSEKFMDKATLTADKASTTAYMQLISLTSEDSAVYYCARSGWLVHGDYYFDYWGQGTTLTVSSEQKLISEEDLVKLSKEAKQRLQQLFKGSQFAIRWGFIPLVIYLGFKRGADPGMPEPTVLSLLWG
notes: In the assay the fusion protein was anchored on the outer membrane of mitochondria isolated from HEK293 cells (MT^α-PDL1scFv); also called MT^α-PDL1scFv; single chain variable region fragment of an anti-PDL1 antibody
PDL1
  binding result: binds
